Measured values published in patent US6974814B2, “Neuropharmacological treatment of sleep-related breathing disorders” (The Board of Trustees of the University of Illinois, priority 1999, dated 2005).

Assays:
sleep apnea = details: cited from earlier work; for effect in individuals with central apnea: central apneas
[1] = system: intertrigeminal region of the brainstem; details: administration into the brainstem; cited from earlier work
apnea = details: animal model of sleep apnea; cited from earlier work
[2] = individuals with obstructive sleep apnea

Protocol for spontaneous apneas: Adult, male Sprague-Dawley rats (Sasco-King, Wilmington, Mass.; usually 8 per test group; 300 g) are maintained on a 12-hour light (08:00–20:00 hour)/12-hour dark (20:00–08:00 hour) cycle for one week, housed in individual cages and given ad libitum access to food and water. Following the one week of acclimatization, animals are subjected to the following surgical procedures.
Acclimatized animals are anesthetized for the implantation of cortical electrodes for electroencephalogram (EEG) recording and neck muscle electrodes for electromyogram (EMG) recording using a mixture of ketamine (Vedco, Inc., St. Joseph, Mo.; 100 mg/ml) and acetylpromazine (Vedco, Inc., St. Joseph, Mo.; 10 mg/ml; 4:1, volume/volume) at a volume of 1 ml/kg body weight. The surface of the skull is exposed surgically and cleaned with a 20% solution of hydrogen peroxide followed by a solution of 95% isopropyl alcohol. Next, a dental preparation of sodium fluoride (Flura-GEL®, Saslow Dental, Mt. Prospect, Ill.) is applied to harden the skull above the parietal cortex and allowed to remain in place for 5 minutes. The fluoride mixture is then removed from the skull above the parietal cortex. The EEG electrodes consisting of four stainless steel machine screws, having leads attached thereto, are threaded into the skull to rest on the dura over the parietal cortex. A thin layer of Justi® resin cement (Saslow Dental, Mt. Prospect, Ill.) is applied to cover the screw heads (of screws implanted in the skull) and surrounding skull to further promote the adhesion of the implant. EMG electrodes consisting of two ball-shaped wires are inserted into the bilateral-neck musculature. All leads (i.e., EEG and EMG leads) are soldered to a miniature connector (39F1401, Newark Electronics, Schaumburg, Ill.). Lastly, the entire assembly is fixed to the skull with dental cement.
After surgery, all animals are allowed to recover for one week before being subjected to another surgery that involved implantation of a radiotelemetry transmitter (TA11-PXT, Data Sciences International, St. Paul, Minn.) for monitoring blood pressure (BP) and heart period (HP), estimated as pulse interval. After the animals are anesthetized (as described above), the hair from the subxiphoid space to the pelvis is removed. The entire area is scrubbed with iodine and rinsed with alcohol and saline. A 4–6 cm midline abdominal incision is made to allow good visualization of the area from the bifurcation of the aorta to the renal arteries. A retractor is used to expose the contents of the abdomen and the intestine is held back using saline moistened gauze sponges. […]
Physiological parameters (see below) from each animal are recorded on numerous occasions in random order, with recordings for an individual animal separated by at least 3 days.

Compound: CC(=O)Nc1nnc(S(N)(=O)=O)s1 [acetazolamide]
- effect in individuals with central apnea (sleep apnea): variable improvement
- effect in individuals with obstructive sleep apnea (OSAS) (sleep apnea): increase in obstructive apneas

Compound: Nc1nc2ccc(OC(F)(F)F)cc2s1 [riluzole]
- average decrease in apnea expression (apneas per hour of NREM sleep) (spontaneous apneas; NREM sleep, 4.0 mg/kg intraperitoneal 15 min before 6 h recording, vs saline, p=0.05): 31%
- animals with a decrease in apnea expression (spontaneous apneas; NREM sleep, 4.0 mg/kg intraperitoneal, vs saline): 5 of 7
- average decrease in apnea expression (apneas per hour of REM sleep) (spontaneous apneas; REM sleep, 4.0 mg/kg intraperitoneal 15 min before 6 h recording, vs saline, p=0.11): 27%
- overall effect on production of spontaneous sleep apneas (spontaneous apneas; both NREM and REM sleep): physiologically significant decrease

Compound: CCN1CC(CCN2CCOCC2)C(c2ccccc2)(c2ccccc2)C1=O (stereo not shown) [doxapram]
- average arterial oxygen saturation (sleep apnea; [2]): did not alter
- length of apneas (sleep apnea; [2]): decrease the length of apneas

Compound: medroxyprogesterone
- effect in individuals with obstructive sleep apnea (OSAS) (sleep apnea): no consistent benefit

Compound: N[C@@H](CCC(=O)O)C(=O)O [glutamate]
- effect on breathing (reflex apneas) [1]: provoked reflex apneas

Compound: C=CCN1CC[C@]23c4c5ccc(O)c4O[C@H]2C(=O)CC[C@@]3(O)[C@H]1C5 [naloxone]
- effect in individuals with obstructive sleep apnea (OSAS) (sleep apnea): only slightly helpful

Compound: Nc1ncnc2c1ncn2[C@@H]1O[C@H](CO)[C@@H](O)[C@H]1O [adenosine]
- effect on apnea (apnea): somewhat effective in reducing apnea

Compound: Cn1c(=O)c2[nH]cnc2n(C)c1=O [theophylline]
- effect in individuals with central apnea (sleep apnea): may benefit
- effect in individuals with obstructive sleep apnea (OSAS) (sleep apnea): of no use

Compound: CNCCCC1c2ccccc2C=Cc2ccccc21 [Protriptyline]
- effect in individuals with obstructive sleep apnea (OSAS) (sleep apnea): variable results
- side effects (sleep apnea; several small trials in OSAS): frequent and significant side effects
